Patent US20240024488A1, “COMPOUNDS AND USES THEREOF” (Foghorn Therapeutics Inc., priority 2020, published 2024)

What was measured:
HiBit-BRM fusion protein = molecular target: T1, HiBit-BRM fusion protein (Homo sapiens, UniProt P51531); assay: HiBiT-BRM cell-based degradation assay (Nano-Glo HiBiT Lytic Detection, 24 h); details: HeLa cell line expressing HiBiT-BRM; for DC50: read-out: BRM HiBit Degradation IC50
T1 construct: expressed in transfected cells
In short: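 HeLa cells stably expressing HiBiT-BRM were dosed with compounds (10-point 3-fold dilutions, 30 μM final top dose, duplicate) for 24 h. HiBiT signal was read by lytic LgBiT complementation luminescence. Percent degradation was normalised to DMSO (high control) and 2 μM of a reference BRM/BRG1 degrader (low control).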

[1] = molecular target: T2, HiBit-BRG1 fusion protein (Homo sapiens, UniProt P51532); assay: HiBiT-BRG1 cell-based degradation assay (Nano-Glo HiBiT Lytic Detection, 24 h); details: HeLa cell line expressing HiBit-BRG1 and LgBit; for Dmax: read-out: BRG1 HiBit Degradation Maximum (%); for DC50: read-out: BRMG1 HiBit Degradation IC50
T2 construct: expressed in transfected cells
In short: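 Stable HeLa line co-expressing HiBit-BRG1 and LgBit, 5000 cells/well, treated 24 h in a tissue culture incubator. Lysed with Nano-Glo HiBiT lytic reagent, luminescence read. % degradation normalized to DMSO (high control) and 2 μM reference BRM/BRG1 degrader (low control).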

T2 sequence (P51532 whole entry, the tested form may be a part): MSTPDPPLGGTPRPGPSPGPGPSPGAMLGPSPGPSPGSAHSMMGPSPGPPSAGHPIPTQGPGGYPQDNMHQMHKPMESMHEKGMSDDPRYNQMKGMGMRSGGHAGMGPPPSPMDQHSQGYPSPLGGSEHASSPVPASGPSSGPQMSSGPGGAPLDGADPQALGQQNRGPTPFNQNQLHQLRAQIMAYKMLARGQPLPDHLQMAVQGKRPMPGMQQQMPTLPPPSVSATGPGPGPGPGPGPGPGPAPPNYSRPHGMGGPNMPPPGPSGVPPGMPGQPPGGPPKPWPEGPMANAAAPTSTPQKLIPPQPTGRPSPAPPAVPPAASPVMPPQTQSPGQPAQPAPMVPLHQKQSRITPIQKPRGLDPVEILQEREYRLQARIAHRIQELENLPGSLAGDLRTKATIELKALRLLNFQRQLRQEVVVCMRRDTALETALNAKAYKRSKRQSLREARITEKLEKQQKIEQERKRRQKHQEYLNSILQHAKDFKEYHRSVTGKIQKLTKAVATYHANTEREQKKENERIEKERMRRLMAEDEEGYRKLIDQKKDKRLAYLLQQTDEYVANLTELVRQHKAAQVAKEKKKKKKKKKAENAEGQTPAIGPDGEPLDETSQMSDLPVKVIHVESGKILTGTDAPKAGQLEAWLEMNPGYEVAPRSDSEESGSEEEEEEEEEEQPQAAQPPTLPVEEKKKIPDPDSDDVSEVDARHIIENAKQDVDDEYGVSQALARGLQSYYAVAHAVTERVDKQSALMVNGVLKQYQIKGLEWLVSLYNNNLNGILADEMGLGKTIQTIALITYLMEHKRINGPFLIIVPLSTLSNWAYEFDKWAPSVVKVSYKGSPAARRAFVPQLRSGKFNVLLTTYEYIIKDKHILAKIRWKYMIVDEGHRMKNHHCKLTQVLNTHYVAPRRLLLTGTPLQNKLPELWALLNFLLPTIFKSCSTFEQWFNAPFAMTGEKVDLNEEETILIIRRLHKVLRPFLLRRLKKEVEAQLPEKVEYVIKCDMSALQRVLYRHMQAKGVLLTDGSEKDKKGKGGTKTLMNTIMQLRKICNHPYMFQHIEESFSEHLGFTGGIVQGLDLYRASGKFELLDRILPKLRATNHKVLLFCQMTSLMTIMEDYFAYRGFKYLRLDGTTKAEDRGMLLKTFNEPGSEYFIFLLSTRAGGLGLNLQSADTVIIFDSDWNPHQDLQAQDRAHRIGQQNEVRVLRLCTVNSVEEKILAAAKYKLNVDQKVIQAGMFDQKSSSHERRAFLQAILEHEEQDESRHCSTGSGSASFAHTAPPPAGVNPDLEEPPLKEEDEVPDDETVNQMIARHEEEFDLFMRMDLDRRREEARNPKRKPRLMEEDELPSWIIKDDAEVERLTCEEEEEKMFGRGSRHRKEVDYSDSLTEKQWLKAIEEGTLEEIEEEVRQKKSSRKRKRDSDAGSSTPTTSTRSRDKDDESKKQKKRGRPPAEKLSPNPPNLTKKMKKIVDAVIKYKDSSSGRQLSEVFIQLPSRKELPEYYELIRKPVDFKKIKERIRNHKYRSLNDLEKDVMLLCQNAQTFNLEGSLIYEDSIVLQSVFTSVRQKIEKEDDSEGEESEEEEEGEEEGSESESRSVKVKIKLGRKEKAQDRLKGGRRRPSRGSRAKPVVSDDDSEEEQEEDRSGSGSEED
T1 sequence (P51531 whole entry, the tested form may be a part): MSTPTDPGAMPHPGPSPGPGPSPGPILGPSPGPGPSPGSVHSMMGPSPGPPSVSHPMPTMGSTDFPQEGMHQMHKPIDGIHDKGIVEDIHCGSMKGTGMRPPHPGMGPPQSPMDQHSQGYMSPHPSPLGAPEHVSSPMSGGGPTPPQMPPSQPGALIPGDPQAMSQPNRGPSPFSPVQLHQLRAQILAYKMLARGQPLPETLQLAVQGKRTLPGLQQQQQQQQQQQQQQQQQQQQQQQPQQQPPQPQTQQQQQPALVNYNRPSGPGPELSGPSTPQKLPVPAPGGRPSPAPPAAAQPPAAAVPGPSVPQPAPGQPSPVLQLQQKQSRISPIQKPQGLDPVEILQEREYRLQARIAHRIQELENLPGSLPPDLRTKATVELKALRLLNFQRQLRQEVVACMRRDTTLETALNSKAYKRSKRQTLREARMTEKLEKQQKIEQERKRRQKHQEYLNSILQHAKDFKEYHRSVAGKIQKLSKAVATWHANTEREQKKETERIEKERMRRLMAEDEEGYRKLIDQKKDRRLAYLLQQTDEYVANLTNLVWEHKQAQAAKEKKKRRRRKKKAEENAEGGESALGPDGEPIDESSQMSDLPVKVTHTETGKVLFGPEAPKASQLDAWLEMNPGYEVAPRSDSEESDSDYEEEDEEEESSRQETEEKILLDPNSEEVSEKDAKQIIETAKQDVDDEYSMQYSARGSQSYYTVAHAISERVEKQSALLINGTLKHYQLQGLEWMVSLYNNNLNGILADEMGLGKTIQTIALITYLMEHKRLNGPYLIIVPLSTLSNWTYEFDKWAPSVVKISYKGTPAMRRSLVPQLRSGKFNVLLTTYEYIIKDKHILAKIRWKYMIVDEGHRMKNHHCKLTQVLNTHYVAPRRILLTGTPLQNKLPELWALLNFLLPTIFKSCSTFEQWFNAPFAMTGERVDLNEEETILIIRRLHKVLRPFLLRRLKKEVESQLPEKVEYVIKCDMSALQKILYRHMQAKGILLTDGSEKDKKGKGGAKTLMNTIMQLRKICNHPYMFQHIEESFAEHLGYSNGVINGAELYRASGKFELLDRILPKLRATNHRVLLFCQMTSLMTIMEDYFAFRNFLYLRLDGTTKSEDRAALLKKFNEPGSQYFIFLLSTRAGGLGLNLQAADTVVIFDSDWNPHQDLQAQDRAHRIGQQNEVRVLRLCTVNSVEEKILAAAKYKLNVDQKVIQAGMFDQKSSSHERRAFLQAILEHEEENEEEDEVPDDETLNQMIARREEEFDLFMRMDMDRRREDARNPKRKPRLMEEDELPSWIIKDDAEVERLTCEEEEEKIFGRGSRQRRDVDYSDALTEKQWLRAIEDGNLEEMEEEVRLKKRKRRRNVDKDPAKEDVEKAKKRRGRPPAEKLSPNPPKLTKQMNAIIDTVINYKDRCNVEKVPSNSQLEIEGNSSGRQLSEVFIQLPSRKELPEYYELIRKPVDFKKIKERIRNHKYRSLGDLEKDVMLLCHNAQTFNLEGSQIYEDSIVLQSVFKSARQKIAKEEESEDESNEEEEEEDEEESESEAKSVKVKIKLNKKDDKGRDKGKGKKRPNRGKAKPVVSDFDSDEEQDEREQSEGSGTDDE

Row | SMILES | BRM HiBit Degradation Maximum (%) (HiBit-BRM fusion protein) | DC50 (HiBit-BRM fusion protein) [nM] | Dmax [1] [%] | DC50 [1] [nM]
1 | Cc1ncsc1-c1ccc([C@H](C)NC(=O)[C@@H]2C[C@@H](O)CN2C(=O)[C@@H](c2cc(OCCN3CC(c4[nH]c5nnc(-c6cc(F)cc(Cl)c6O)cc5c4C)C3)no2)C(C)C)cc1 (racemic) [Compound 129, (2S,4R)-1-((R)-2-(3-(2-(3-(3-(3-chloro-5-fluoro-2-hydroxyphenyl)-5-methyl-7H-pyrrolo[2,3-c]pyridazin-6-yl)azetidin-1-yl)ethoxy)isoxazol-5-yl)-3-methylbutanoyl)-4-hydroxy-N-((S)-1-(4-(4-methylthiazol-5-yl)phenyl)ethyl)pyrrolidine-2-carboxamide] | A (“A” indicates maximum degradation ≥ 75%) | > 10 | > 50 | > 100
2 | Cc1ncsc1-c1ccc([C@H](C)NC(=O)[C@@H]2C[C@@H](O)CN2C(=O)[C@@H](c2cc(OCCN3CC(c4[nH]c5nnc(-c6cc(F)ccc6O)cc5c4C)C3)no2)C(C)C)cc1 (racemic) [Compound 130, (2S,4R)-1-((R)-2-(3-(2-(3-(3-(5-fluoro-2-hydroxyphenyl)-5-methyl-7H-pyrrolo[2,3-c]pyridazin-6-yl)azetidin-1-yl)ethoxy)isoxazol-5-yl)-3-methylbutanoyl)-4-hydroxy-N-((S)-1-(4-(4-methylthiazol-5-yl)phenyl)ethyl)pyrrolidine-2-carboxamide] | A (“A” indicates maximum degradation ≥ 75%) | < 10 | > 75 | > 100
3 | Cc1ncsc1-c1ccc([C@H](C)NC(=O)[C@@H]2C[C@@H](O)CN2C(=O)[C@@H](c2cc(OCCN3C[C@@H]4[C@H](C3)[C@H]4c3[nH]c4nnc(-c5ccccc5O)cc4c3Cl)no2)C(C)C)cc1 (racemic) [Compound 131, (2S,4R)-1-[(2R)-2-(3-{2-[(1R,5S,6S)-6-[5-chloro-3-(2-hydroxyphenyl)-7H-pyrrolo[2,3-c]pyridazin-6-yl]-3-azabicyclo[3.1.0]hexan-3-yl]ethoxy}-1,2-oxazol-5-yl)-3-methylbutanoyl]-4-hydroxy-N-[(1S)-1-[4-(4-methyl-1,3-thiazol-5-yl)phenyl]ethyl]pyrrolidine-2-carboxamide] | A (“A” indicates maximum degradation ≥ 75%) | > 10 | > 50 | > 100
4 | Cc1ncsc1-c1ccc([C@H](C)NC(=O)[C@@H]2C[C@@H](O)CN2C(=O)[C@@H](c2cc(OCCNC3CC[C@]34C[C@H](c3cc5cc(-c6ccccc6O)nnc5[nH]3)C4)no2)C(C)C)cc1 (mixture of isomers) [Compound 132, (2S,4R)-4-hydroxy-1-((R)-2-(3-(2-(((1S,4s,6S)-6-(3-(2-hydroxyphenyl)-7H-pyrrolo[2,3-c]pyridazin-6-yl)spiro[3.3]heptan-1-yl)amino)ethoxy)isoxazol-5-yl)-3-methylbutanoyl)-N-((S)-1-(4-(4-methylthiazol-5-yl)phenyl)ethyl)pyrrolidine-2-carboxamide] | A (“A” indicates maximum degradation ≥ 75%) | > 10 | < 50 | –
5 | Cc1ncsc1-c1ccc([C@H](C)NC(=O)[C@@H]2C[C@@H](O)CN2C(=O)[C@@H](c2cc(OCCNC3CC[C@]34C[C@@H](c3cc5cc(-c6ccccc6O)nnc5[nH]3)C4)no2)C(C)C)cc1 (mixture of isomers) [Compound 133, (2S,4R)-4-hydroxy-1-((R)-2-(3-(2-(((1S,4r,6R)-6-(3-(2-hydroxyphenyl)-7H-pyrrolo[2,3-c]pyridazin-6-yl)spiro[3.3]heptan-1-yl)amino)ethoxy)isoxazol-5-yl)-3-methylbutanoyl)-N-((S)-1-(4-(4-methylthiazol-5-yl)phenyl)ethyl)pyrrolidine-2-carboxamide] | A (“A” indicates maximum degradation ≥ 75%) | > 10 | > 50 | > 100
6 | Cc1ncsc1-c1ccc([C@H](C)NC(=O)[C@@H]2C[C@@H](O)CN2C(=O)[C@@H](c2cc(OCCN3CC(C4(C)CNc5nnc(-c6ccccc6O)cc54)C3)no2)C(C)C)cc1 (mixture of isomers) [Compound 134] | C (“C” indicates maximum degradation < 50%) | – | < 50 | –
